# Measured values from patent publication US10953027B2, “Active agents and methods of their use for the treatment of metabolic disorders and nonalcoholic fatty liver disease” (Flagship Pioneering Innovations V, Inc., priority 2018, dated 2021).
# Assay: Assay 2. Stability in Simulated Intestinal Fluid (SIF)
# Format: in vitro ADME
# Settings: 1 μM, 37° C., SIF pH 6.7 with pancreatin
# Description: Assay 2. Stability of acylated active agents in Simulated Intestinal Fluid (SIF). This assay was used to assess the stability of an acylated active agent in a small intestine.
# Phosphate buffer was prepared by dissolving 0.42 g of sodium hydroxide pellets and 3.95 g of monobasic sodium phosphate monohydrate and 6.19 g of sodium chloride in ultrapure water (MilliQ®, Millipore Sigma, Darmstadt, Germany). The pH was adjusted to 6.7 using aq. HCl and aq. NaOH, as necessary, and the solution was diluted with ultrapure water to produce 1 L of the pH 6.7 buffer.
# 112 mg FaSSIF powder (Biorelevant™, London, UK) was dissolved in 50 mL of the pH 6.7 buffer. 2 to 3 mL of the resulting solution were then added to 500 mg pancreatin (Millipore Sigma, Darmstadt, Germany). The resulting mixture was agitated by finger tapping the vessel containing the mixture until milky suspension formed. At this time, the remainder of the 50 mL FaSSiF/pH 6.7 buffer solution was added. The resulting suspension was flipped upside down 10 times to produce SIF, which was used fresh.
# Test compounds were dissolved in DMSO stock to 1 mM. An aliquot of the DMSO stock solution was removed and diluted in the SIF media in 15 mL falcon tubes to produce a mixture with a tested compound concentration of 1 μM. A 1 mL aliquot was immediately removed and diluted once with 1 volume of acetonitrile for T0 timepoint. The mixture was sealed and agitated at 37° C. in an incubator. Aliquots (1 mL) were removed at regular intervals and immediately quenched by the addition of 1 volume of acetonitrile. The resulting samples were analyzed by LC/MS to determine degradation rates.
row,Compound,Assay 2 (SIF) (% @ Remaining 4 hours)
1,"CC(=O)Oc1ccc(/C=C/c2cc(OC(C)=O)cc(OC(C)=O)c2)cc1 [Compound 18, [4-[(E)-2-(3,5-diacetoxyphenyl)vinyl]phenyl] acetate]",C (C: >75% of the tested compound remaining)
2,"CCC(=O)OC1OC[C@@H](OC(=O)CC)[C@H](OC(=O)CC)[C@H]1OC(=O)CC (stereo partly drawn) [Compound 162, (3R,4S,5R)-3,4,5-tris(propanoyloxy)oxan-2-yl Propanoate]",A (A: <25% of the tested compound remaining)
3,"CCCC(=O)Oc1ccc(/C=C/c2cc(OC(=O)CCC)cc(OC(=O)CCC)c2)cc1 [Compound 1, [4-[(E)-2-[3,5-di(butanoyloxy)phenyl]vinyl]phenyl] butanoate]",B (B: 25-75% of the tested compound remaining)
4,"CC(=O)OC[C@H]1O[C@@H](Oc2c(C)c(C)c3c(c2C)CC[C@@](C)(CCC[C@H](C)CCC[C@H](C)CCCC(C)C)O3)[C@H](OC(C)=O)[C@@H](OC(C)=O)[C@@H]1OC(C)=O [Compound 63, [(2R,3R,4S,5R,6S)-3,4,5-triacetoxy-6-[(2R)-2,5,7,8-tetramethyl-2-[(4R,8R)-4,8,12-trimethyltridecyl]chroman-6-yl]oxy-tetrahydropyran-2-yl]methyl Acetate]",C (C: >75% of the tested compound remaining)
5,"CCCC(=O)Nc1ccc(O[C@@H]2OC[C@@H](OC(=O)CCC)[C@H](OC(=O)CCC)[C@H]2OC(=O)CCC)c(C(=O)O)c1 [Compound 229, 5-butanamido-2-{[(2S,3R,4S,5R)-3,4,5-tris(butanoyloxy)oxan-2-yl]oxy}benzoic Acid]",A (A: <25% of the tested compound remaining)
6,"CCCC(=O)O[C@@H]1O[C@@H](C)[C@H](OC(=O)CCC)[C@@H](OC(=O)CCC)[C@H]1OC(=O)CCC [Compound 152, (2S,3R,4R,5S,6S)-3,4,5-tris(butanoyloxy)-6-methyloxan-2-yl Butanoate]",A (A: <25% of the tested compound remaining)
7,"O=C(Cc1c[nH]c2ccccc12)O[C@@H]1OC[C@@H](OC(=O)Cc2c[nH]c3ccccc23)[C@@H](OC(=O)Cc2c[nH]c3ccccc23)[C@H]1OC(=O)Cc1c[nH]c2ccccc12 [Compound 172, (2S,3R,4R,5R)-3,4,5-tris({[2-(1H-indol-3-yl)acetyl]oxy})oxan-2-yl 2-(1H-indol-3-yl)acetate]",C (C: >75% of the tested compound remaining)
8,"CCCC(=O)O[C@H]1OC[C@@H](OC(=O)CCC)[C@H](OC(=O)CCC)[C@H]1OC(=O)CCC [Compound 191, (2R,3R,4S,5R)-3,4,5-tris(butanoyloxy)oxan-2-yl Butanoate]",C (C: >75% of the tested compound remaining)
9,"CCCC(=O)O[C@H]1O[C@@H](C)[C@H](OC(=O)CCC)[C@@H](OC(=O)CCC)[C@H]1OC(=O)CCC [Compound 151, (2R,3R,4R,5S,6S)-3,4,5-tris(butanoyloxy)-6-methyloxan-2-yl Butanoate]",A (A: <25% of the tested compound remaining)
10,"C[C@@H]1O[C@@H](OC(=O)Cc2c[nH]c3ccccc23)[C@H](OC(=O)Cc2c[nH]c3ccccc23)[C@H](OC(=O)Cc2c[nH]c3ccccc23)[C@H]1OC(=O)Cc1c[nH]c2ccccc12 [Compound 154, (2S,3R,4R,5S,6S)-3,4,5-tris({[2-(1H-indol-3-yl)acetyl]oxy})-6-methyloxan-2-yl 2-(1H-indol-3-yl)acetate]",A (A: <25% of the tested compound remaining)
11,"O=C(CCCc1ccccc1)Oc1ccc(/C=C/c2cc(OC(=O)CCCc3ccccc3)cc(OC(=O)CCCc3ccccc3)c2)cc1 [Compound 2, [4-[(E)-2-[3,5-bis(4-phenylbutanoyloxy)phenyl]vinyl]phenyl] 4-phenylbutanoate]",C (C: >75% of the tested compound remaining)
12,"CCCC(=O)O[C@@H]1[C@@H](OC(=O)CCC)[C@@H](Oc2ccc(N)cc2C(=O)O)OC[C@H]1OC(=O)CCC [Compound 204, 5-amino-2-[(2R,3R,4S,5R)-3,4,5-tri(butanoyloxy)tetrahydropyran-2-yl]oxy-benzoic Acid]",B (B: 25-75% of the tested compound remaining)
13,"C[C@@H]1O[C@H](OC(=O)Cc2c[nH]c3ccccc23)[C@H](OC(=O)Cc2c[nH]c3ccccc23)[C@H](OC(=O)Cc2c[nH]c3ccccc23)[C@H]1OC(=O)Cc1c[nH]c2ccccc12 [Compound 153, (2R,3R,4R,5S,6S)-3,4,5-tris({[2-(1H-indol-3-yl)acetyl]oxy})-6-methyloxan-2-yl 2-(1H-indol-3-yl)acetate]",A (A: <25% of the tested compound remaining)
14,"CCCC(=O)O[C@@H]1[C@@H](OC(=O)CCC)[C@@H](Oc2ccc(N)cc2C(=O)O)OC[C@@H]1OC(=O)CCC [Compound 42, 5-amino-2-[(2R,3R,4S,5S)-3,4,5-tri(butanoyloxy)tetrahydropyran-2-yl]oxy-benzoic Acid]",C (C: >75% of the tested compound remaining)

# Assay: Assay 1. Stability in Simulated Gastric Fluid (SGF)
# Format: in vitro ADME
# Settings: 1 μM, 37° C., SGF pH 1.6 with pepsin
# Description: Assay 1. Stability of acylated active agents in Simulated Gastric Fluid (SGF). This assay was used to assess the stability of an acylated active agent in a stomach.
# Medium was prepared by dissolving 2 g of sodium chloride in 0.6 L of ultrapure water (MilliQ®, Millipore Sigma, Darmstadt, Germany). The pH was adjusted to 1.6 with 1N hydrochloric acid, and the volume was then adjusted to 1 L with purified water.
# 60 mg FaSSIF powder (Biorelevant™, London, UK) were dissolved in 500 mL buffer (above). Pepsin was added (0.1 mg/mL) (Millipore Sigma, Darmstadt, Germany), and the solution was stirred. The resulting SGF media were used fresh for each experiment.
# Test compounds were dissolved in DMSO stock to 1 mM. An aliquot of the DMSO stock solution was removed and diluted in the SGF Media in 15 mL falcon tubes to generate a compound concentration of 1 μM. A 1 mL aliquot was immediately removed and diluted once with 1 volume of acetonitrile for T0 timepoint. The mixture was sealed and mixed at 37° C. in an incubator. Aliquots (1 mL) were removed at regular intervals and immediately quenched by the addition of 1 volume of acetonitrile. The resulting samples were analyzed by LC/MS to determine degradation rates in SGF.
row,Compound,Assay 1 (SGF) (% Remaining @ 1 hours)
1,"CC(=O)Oc1ccc(/C=C/c2cc(OC(C)=O)cc(OC(C)=O)c2)cc1 [Compound 18, [4-[(E)-2-(3,5-diacetoxyphenyl)vinyl]phenyl] acetate]",C (C: >75% of the tested compound remaining)
2,"CCC(=O)OC1OC[C@@H](OC(=O)CC)[C@H](OC(=O)CC)[C@H]1OC(=O)CC (stereo partly drawn) [Compound 162, (3R,4S,5R)-3,4,5-tris(propanoyloxy)oxan-2-yl Propanoate]",C (C: >75% of the tested compound remaining)
3,"C[C@@H]1CCOC(C(=O)Oc2ccc(/C=C/c3cc(OC(=O)C4OCC[C@@H](C)O4)cc(OC(=O)C4OCC[C@@H](C)O4)c3)cc2)O1 (stereo partly drawn) [Compound 258, 3-[(4R)-4-methyl-1,3-dioxane-2-carbonyloxy]-5-[(1E)-2-{4-[(4R)-4-methyl-1,3-dioxane-2-carbonyloxy]phenyl}ethenyl]phenyl (4R)-4-methyl-1,3-dioxane-2-carboxylate]",A (A: <25% of the tested compound remaining)
4,"CCCC(=O)Oc1ccc(/C=C/c2cc(OC(=O)CCC)cc(OC(=O)CCC)c2)cc1 [Compound 1, [4-[(E)-2-[3,5-di(butanoyloxy)phenyl]vinyl]phenyl] butanoate]",C (C: >75% of the tested compound remaining)
5,"CC(=O)OC[C@H]1O[C@@H](Oc2c(C)c(C)c3c(c2C)CC[C@@](C)(CCC[C@H](C)CCC[C@H](C)CCCC(C)C)O3)[C@H](OC(C)=O)[C@@H](OC(C)=O)[C@@H]1OC(C)=O [Compound 63, [(2R,3R,4S,5R,6S)-3,4,5-triacetoxy-6-[(2R)-2,5,7,8-tetramethyl-2-[(4R,8R)-4,8,12-trimethyltridecyl]chroman-6-yl]oxy-tetrahydropyran-2-yl]methyl Acetate]",C (C: >75% of the tested compound remaining)
6,"CCC(=O)O[C@@H]1OC[C@H](OC(=O)CC)[C@H](OC(=O)CC)[C@H]1OC(=O)CC [Compound 160, (2S,3R,4S,5S)-3,4,5-tris(propanoyloxy)oxan-2-yl Propanoate]",C (C: >75% of the tested compound remaining)
7,"CCCCCCCCCC(=O)Oc1ccc(/C=C/c2cc(OC(=O)CCCCCCCCC)cc(OC(=O)CCCCCCCCC)c2)cc1 [Compound 12, [4-[(E)-2-[3,5-di(decanoyloxy)phenyl]vinyl]phenyl] decanoate]",C (C: >75% of the tested compound remaining)
8,"C[C@@H]1CCO[C@H](C(=O)Oc2ccc(/C=C/c3cc(O)cc(OC(=O)[C@H]4OCC[C@@H](C)O4)c3)cc2)O1 [Compound 256, 4-[(1E)-2-{3-hydroxy-5-[(2S,4R)-4-methyl-1,3-dioxane-2-carbonyloxy]phenyl}ethenyl]phenyl (2S,4R)-4-methyl-1,3-dioxane-2-carboxylate]",A (A: <25% of the tested compound remaining)
9,"CCC(=O)O[C@H]1[C@H](OC(=O)CC)[C@H](OC(=O)/C=C/c2c[nH]c3ccccc23)O[C@@H](C)[C@H]1OC(=O)CC [Compound 148, (2S,3S,4R,5R,6S)-6-methyl-3,4,5-tris(propanoyloxy)oxan-2-yl (2E)-3-(1H-indol-3-yl)prop-2-enoate]",C (C: >75% of the tested compound remaining)
10,"CCC(=O)O[C@@H]1[C@@H](OC(=O)CC)[C@@H](OC(=O)CCc2c[nH]c3ccccc23)OC[C@H]1OC(=O)CC [Compound 108, (2R,3R,4S,5R)-3,4,5-tris(propanoyloxy)oxan-2-yl 3-(1H-indol-3-yl)propanoate]",C (C: >75% of the tested compound remaining)
11,"CCCCCCCC(=O)Oc1ccc(/C=C/c2cc(OC(=O)CCCCCCC)cc(OC(=O)CCCCCCC)c2)cc1 [Compound 11, [4-[(E)-2-[3,5-di(octanoyloxy)phenyl]vinyl]phenyl] octanoate]",C (C: >75% of the tested compound remaining)
12,"CCCC(=O)OCC1(OC(=O)CCC)OC[C@@H](OC(=O)CCC)[C@H](OC(=O)CCC)[C@@H]1OC(=O)CCC (stereo partly drawn) [Compound 163, [(3S,4S,5R)-2,3,4,5-tetrakis(butanoyloxy)oxan-2-yl]methyl Butanoate]",C (C: >75% of the tested compound remaining)
